Earlier results as cited in patent publication US8092822B2, “Coatings including dexamethasone derivatives and analogs and olimus drugs” (Abbott Cardiovascular Systems Inc., priority 2008, dated 2012).

Key:
[1] = tested on: endothelial cell proliferation
[2] = tested on: human coronary artery endothelial cells; details: in vitro

Compound | effect on endothelial migration (endothelial migration) | inhibition of endothelial cell proliferation [1] | inhibition of migration of human coronary artery endothelial cells [2]
C[C@@H]1C[C@H]2[C@@H]3CCC4=CC(=O)C=C[C@]4(C)[C@@]3(F)[C@@H](O)C[C@]2(C)[C@@]1(O)C(=O)CO [dexamethasone, Dexamethasone] | positive effect | – | –
CO[C@H]1C[C@@H]2CC[C@@H](C)[C@@](O)(O2)C(=O)C(=O)N2CCCC[C@H]2C(=O)O[C@H]([C@H](C)C[C@@H]2CC[C@H](n3cnnn3)[C@H](OC)C2)CC(=O)[C@H](C)/C=C(\C)[C@@H](O)[C@@H](OC)C(=O)[C@H](C)C[C@H](C)/C=C/C=C/C=C/1C [zotarolimus] | – | inhibit | –
CC(=O)O[C@H]1C(=O)[C@@]2(C)[C@H]([C@H](OC(=O)c3ccccc3)[C@]3(O)C[C@H](OC(=O)[C@H](O)[C@@H](NC(=O)c4ccccc4)c4ccccc4)C(C)=C1C3(C)C)[C@]1(OC(C)=O)CO[C@@H]1C[C@@H]2O [paclitaxel, Paclitaxel] | – | inhibit | inhibits
